Our source for the Ki and IC50 values is patent US20240391936A1, “TETRAHYDROTHIENO PYRIDINE DERIVATIVES AS DDRS INHIBITORS” (CHIESI FARMACEUTICI S.P.A., priority 2021, published 2024).

pIC50, pKi: −log10 of the molar value.

Assay [1] deals with T1, DDR1 (Homo sapiens, UniProt Q08345). Nature of the assay: DDR1 binding assay (LanthaScreen Europium Kinase Binding assay). Further details: purchased Carna Biosciences. The conditions noted are these: binding assay, 5 nM DDR1, 20 nM Kinase Tracer 178; Ki from IC50 by Cheng-Prusoff; read-out: Ki DDR1. Here is the method:
(§1) DDR1 and DDR2 binding assays were performed using Life Technologies LanthaScreen™ Europium Kinase Binding assay. The compounds were incubated with 5 nM DDR1 (Carna Biosciences) or 5 nM DDR2 (Life Technologies) for 1 hour at room temperature in white 384-well OptiPlate (PerkinElmer), containing 20 nM or 10 nM Kinase Tracer 178 respectively and 2 nM Europium labelled anti-GST antibody (Life Technologies) in assay buffer (50 mM HEPES pH 7.5, 10 mM MgCl2, 1 mM EGTA and 0.01% BRIJ35).
(§2) The ratio of fluorescence emission 665 nm/615 nm after excitation at 340 nm was obtained using the Tecan Spark 20M plate reader. IC50 values were determined in GraphPad Prism 7.0 software, using 4 parameter model: log(inhibitor) vs. response. IC50 values were converted in Ki using the Cheng-Prusoff equation

In another assay the target is T2, DDR2 (Homo sapiens, UniProt Q16832).
T2 sequence (Q16832 22-855): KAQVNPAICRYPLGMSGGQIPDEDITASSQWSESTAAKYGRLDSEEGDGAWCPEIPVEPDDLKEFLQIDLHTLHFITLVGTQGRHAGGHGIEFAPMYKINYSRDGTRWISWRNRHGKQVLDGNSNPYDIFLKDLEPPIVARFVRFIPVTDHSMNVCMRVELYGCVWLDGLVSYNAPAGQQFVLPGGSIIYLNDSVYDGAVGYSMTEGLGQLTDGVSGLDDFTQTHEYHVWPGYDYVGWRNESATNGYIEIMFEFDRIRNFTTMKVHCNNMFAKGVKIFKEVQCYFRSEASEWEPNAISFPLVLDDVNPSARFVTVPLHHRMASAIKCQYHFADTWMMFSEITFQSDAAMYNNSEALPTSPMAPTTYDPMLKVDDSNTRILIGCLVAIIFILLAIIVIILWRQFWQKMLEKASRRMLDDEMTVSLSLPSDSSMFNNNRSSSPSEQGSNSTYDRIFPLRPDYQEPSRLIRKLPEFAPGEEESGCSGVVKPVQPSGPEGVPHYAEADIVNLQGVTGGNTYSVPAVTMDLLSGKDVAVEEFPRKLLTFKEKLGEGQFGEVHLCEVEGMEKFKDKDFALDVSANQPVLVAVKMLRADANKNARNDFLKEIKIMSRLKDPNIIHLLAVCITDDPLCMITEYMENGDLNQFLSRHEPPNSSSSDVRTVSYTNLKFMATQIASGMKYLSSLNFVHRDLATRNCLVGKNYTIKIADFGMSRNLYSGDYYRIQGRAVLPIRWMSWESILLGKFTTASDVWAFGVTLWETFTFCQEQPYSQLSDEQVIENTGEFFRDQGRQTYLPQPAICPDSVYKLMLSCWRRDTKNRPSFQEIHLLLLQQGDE
Nature of the assay: DDR2 binding assay (LanthaScreen Europium Kinase Binding assay). The settings on record: binding assay, 5 nM DDR2, 10 nM Kinase Tracer 178; Ki from IC50 by Cheng-Prusoff; read-out: Ki DDR2. Set-up: purchased Life Technologies. Here is the method: as §1, §2
(In general: In TR-FRET formats the signal depends on donor and acceptor labels being close together.)

The target of assay [2] is T1, DDR1. Nature of the assay: DDR1 cell based assay (PathHunter U2OS DDR1 assay). Further details: host or cells: U2OS-DDR1 (PathHunter). The conditions noted are these: U2OS-DDR1 cells, bovine Type II Collagen 20 μg/ml. Here is the method:
The inhibition of DDR1 receptor activation by compounds was evaluated by PathHunter® U2OS DDR1 assay (Eurofins DiscoverX), according to the manufacturer's instructions. Briefly, U2OS-DDR1 cells were seeded in white 384-well plates at a density of 5000 cells/well and incubated for 2 hours at 37° C. and 5% CO2. Cells were then treated with compounds at different concentrations and incubated for 30 minutes, before stimulation with bovine Type II Collagen 20 μg/ml and incubation overnight at 37° C. and 5% CO2. PathHunter Detection Reagents were prepared according to the protocol provided by DiscoverX and 20 μl/well of this mix were added to each well. After incubating the plates for 1 hour at room temperature in the dark, luminescence signal was acquired with a plate reader. Raw data were normalized to vehicle control (0% for normalization) and positive control (100% for normalization; cells treated with 20 μg/ml collagen II) and IC50 parameters were calculated in GraphPad Prism 8.0 software, using sigmoidal dose-response curve fitting with variable slope.

T1 sequence (Q08345 19-913): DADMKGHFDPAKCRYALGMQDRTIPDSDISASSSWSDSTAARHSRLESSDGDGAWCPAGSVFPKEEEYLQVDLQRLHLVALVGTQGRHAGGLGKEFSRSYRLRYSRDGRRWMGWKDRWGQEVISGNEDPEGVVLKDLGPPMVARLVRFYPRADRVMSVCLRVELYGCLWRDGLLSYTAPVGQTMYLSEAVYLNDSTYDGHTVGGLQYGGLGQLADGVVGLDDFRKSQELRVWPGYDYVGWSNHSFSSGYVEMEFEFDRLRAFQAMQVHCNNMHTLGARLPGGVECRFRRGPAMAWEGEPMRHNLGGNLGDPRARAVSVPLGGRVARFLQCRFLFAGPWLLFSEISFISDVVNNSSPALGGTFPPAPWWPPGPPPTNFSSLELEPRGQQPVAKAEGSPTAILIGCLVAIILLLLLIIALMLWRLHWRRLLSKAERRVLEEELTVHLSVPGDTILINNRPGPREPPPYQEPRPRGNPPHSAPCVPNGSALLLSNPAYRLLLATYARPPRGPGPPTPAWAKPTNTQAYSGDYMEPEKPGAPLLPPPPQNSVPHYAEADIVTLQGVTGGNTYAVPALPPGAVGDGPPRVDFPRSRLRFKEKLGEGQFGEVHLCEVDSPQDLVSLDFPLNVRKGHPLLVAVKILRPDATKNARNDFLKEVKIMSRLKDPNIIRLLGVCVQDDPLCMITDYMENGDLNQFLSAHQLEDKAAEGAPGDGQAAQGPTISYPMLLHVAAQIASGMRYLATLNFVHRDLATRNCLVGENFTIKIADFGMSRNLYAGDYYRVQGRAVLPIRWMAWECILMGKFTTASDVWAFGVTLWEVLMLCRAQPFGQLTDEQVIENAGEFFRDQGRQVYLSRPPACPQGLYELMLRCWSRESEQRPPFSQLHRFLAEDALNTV

In general, pKi refers to the negative decadic logarithm of the Ki, by convention in mol/L. Broadly, the pIC50 is the IC50 on a negative log10 scale, so that one unit is a factor of ten. A high value points to a small IC50. As for `CN(C)Cc1cc(NC(=O)c2csc3c2CCN(C(=O)c2cnc4ccccn24)C3)cc(C(F)(F)F)n1` [Example 129, N-(2-((dimethylamino)methyl)-6-(trifluoromethyl)pyridin-4-yl)-6-(imidazo[1,2-a]pyridine-3-carbonyl)-4,5,6,7-tetrahydrothieno[2,3-c]pyridine-3-carboxamide], the pKi at DDR1 [1] was over 7.60; on DDR2, 7.30 to 7.60. Moreover, the pIC50 at DDR1 [2] was 7.30 to 7.60.

Consider `Cn1nc(NC(=O)c2csc3c2CCN(C(=O)c2cnn4ccncc24)C3)cc1C(C)(C)C` [Example 116, N-(5-(tert-butyl)-1-methyl-1H-pyrazol-3-yl)-6-(pyrazolo[1,5-a]pyrazine-3-carbonyl)-4,5,6,7-tetrahydrothieno[2,3-c]pyridine-3-carboxamide], for which the pKi at DDR1 [1] and at DDR2 was over 7.60 throughout. This compound also had a pIC50 against DDR1 [2] of 7.30 to 7.60.

With `O=C(Nc1cc(C(F)(F)F)cnn1)c1csc2c1CCN(C(=O)c1cnc3ccccn13)C2` [Example 173, 6-(imidazo[1,2-a]pyridine-3-carbonyl)-N-(5-(trifluoromethyl)pyridazin-3-yl)-4,5,6,7-tetrahydrothieno[2,3-c]pyridine-3-carboxamide], the pKi at DDR1 [1] and on DDR2 was over 7.60 each time. Moreover, the pIC50 against DDR1 [2] was 7.30 to 7.60.

With `CC1c2scc(C(=O)Nc3cc(C(C)(C)C)nn3C)c2CCN1C(=O)c1cnc2ccccn12` (stereo not drawn) [Example 99, N-(3-(tert-butyl)-1-methyl-1H-pyrazol-5-yl)-6-(imidazo[1,2-a]pyridine-3-carbonyl)-7-methyl-4,5,6,7-tetrahydrothieno[2,3-c]pyridine-3-carboxamide], the pKi is over 7.60 on DDR1 [1] and 7.10 to 7.30 on DDR2. At DDR1 [2], this compound showed a pIC50 of 7.30 to 7.60.

As for `O=C(Nc1cc(F)cc(OC(F)(F)F)c1)c1csc2c1CCN(C(=O)c1cnc3ccccn13)C2` [Example 10, N-(3-fluoro-5-(trifluoromethoxy)phenyl)-6-(imidazo[1,2-a]pyridine-3-carbonyl)-4,5,6,7-tetrahydrothieno[2,3-c]pyridine-3-carboxamide], the pKi on DDR1 [1] and at DDR2 was over 7.60 throughout. On DDR1 [2], this compound gave a pIC50 of over 7.60.

Turning to `Cc1n[nH]c2ncc(CN3CCc4c(C(=O)Nc5cc(C6CC6)nn5C)csc4C3)cc12` [Example 146, N-(3-cyclopropyl-1-methyl-1H-pyrazol-5-yl)-6-((3-methyl-1H-pyrazolo[3,4-b]pyridin-5-yl)methyl)-4,5,6,7-tetrahydrothieno[2,3-c]pyridine-3-carboxamide], the pKi on DDR1 [1] and on DDR2 was over 7.60 each time. Besides, the pIC50 against DDR1 [2] is 7.30 to 7.60.

On to `CC1c2scc(C(=O)Nc3cccc(C(F)(F)F)c3)c2CCN1Cc1cnc2[nH]ccc2c1` (single isomer, unassigned) [Example 107, 6-((1H-pyrrolo[2,3-b]pyridin-5-yl)methyl)-7-methyl-N-(3-(trifluoromethyl)phenyl)-4,5,6,7-tetrahydrothieno[2,3-c]pyridine-3-carboxamide], for which the pKi on DDR1 [1] and on DDR2 was over 7.60 in each case. At DDR1 [2], this compound had a pIC50 of over 7.60.

`O=C(Nc1cncc(OC(F)(F)F)c1)c1csc2c1CCN(C(=O)c1cnn3ccncc13)C2` [Example 128, 6-(pyrazolo[1,5-a]pyrazine-3-carbonyl)-N-(5-(trifluoromethoxy)pyridin-3-yl)-4,5,6,7-tetrahydrothieno[2,3-c]pyridine-3-carboxamide]: the pKi on DDR1 [1] and on DDR2 was over 7.60 each time. Further, the pIC50 at DDR1 [2] is over 7.60.

`COCCOc1ccc(NC(=O)c2csc3c2CCN(C(=O)c2cnc4ccccn24)C3)cc1C(F)(F)F` [Example 15, 6-(imidazo[1,2-a]pyridine-3-carbonyl)-N-(4-(2-methoxyethoxy)-3-(trifluoromethyl)phenyl)-4,5,6,7-tetrahydrothieno[2,3-c]pyridine-3-carboxamide]: the negative logarithm of the Ki (pKi) at DDR1 [1] and at DDR2 was over 7.60 throughout. The compound also showed a pIC50 at DDR1 [2] of 7.30 to 7.60.

Regarding `CN1CCC(Oc2ccc(NC(=O)c3csc4c3CCN(C(=O)c3cnc5ccccn35)C4)cc2C(F)(F)F)CC1` [Example 32, 6-(imidazo[1,2-a]pyridine-3-carbonyl)-N-(4-((1-methylpiperidin-4-yl)oxy)-3-(trifluoromethyl)phenyl)-4,5,6,7-tetrahydrothieno[2,3-c]pyridine-3-carboxamide], the negative logarithm of the Ki (pKi) on DDR1 [1] and at DDR2 was over 7.60 in each case. This compound gave a negative logarithm of the IC50 (pIC50) against DDR1 [2] of 7.30 to 7.60.

Consider `CN(C)[C@@H]1CCN(C(=O)c2cc(NC(=O)c3csc4c3CCN(C(=O)c3cnc5ccccn35)C4)cc(C(F)(F)F)c2)C1` [Example 130, (R)-N-(3-(3-(dimethylamino)pyrrolidine-1-carbonyl)-5-(trifluoromethyl)phenyl)-6-(imidazo[1,2-a]pyridine-3-carbonyl)-4,5,6,7-tetrahydrothieno[2,3-c]pyridine-3-carboxamide], for which the pKi at DDR1 [1] and on DDR2 was over 7.60 each time. Also, at DDR1 [2], the pIC50 was 7.10 to 7.30.

On to `CC(C)c1cc(NC(=O)c2csc3c2CCN(C(=O)c2cnc4ccccn24)C3)n(C)n1` [Example 36, 6-(imidazo[1,2-a]pyridine-3-carbonyl)-N-(3-isopropyl-1-methyl-1H-pyrazol-5-yl)-4,5,6,7-tetrahydrothieno[2,3-c]pyridine-3-carboxamide], for which the pKi at DDR1 [1] and at DDR2 was over 7.60 in each case. On DDR1 [2], this compound gave a pIC50 of 7.10 to 7.30.

As to `COCCN(C)Cc1cc(NC(=O)c2csc3c2CCN(C(=O)c2cnc4ccccn24)C3)cc(C(F)(F)F)c1` [Example 61, 6-(imidazo[1,2-a]pyridine-3-carbonyl)-N-(3-(((2-methoxyethyl)(methyl)amino)methyl)-5-(trifluoromethyl)phenyl)-4,5,6,7-tetrahydrothieno[2,3-c]pyridine-3-carboxamide], the pKi at DDR1 [1] and at DDR2 was over 7.60 each time. Also, on DDR1 [2], the pIC50 is 7.30 to 7.60.

As to `O=C(Nc1ccnc(C(F)(F)F)c1)c1csc2c1CCN(C(=O)c1cnc3ccccn13)C2` [Example 17, 6-(imidazo[1,2-a]pyridine-3-carbonyl)-N-(2-(trifluoromethyl)pyridin-4-yl)-4,5,6,7-tetrahydrothieno[2,3-c]pyridine-3-carboxamide], the pKi on DDR1 [1] and on DDR2 was over 7.60 in each case. Besides, the pIC50 on DDR1 [2] is 7.30 to 7.60.

As to `O=C(Nc1cc(N2CCOCC2)cc(C(F)(F)F)c1)c1csc2c1CCN(C(=O)c1cnc3ccccn13)C2` [Example 181, 6-(imidazo[1,2-a]pyridine-3-carbonyl)-N-(3-morpholino-5-(trifluoromethyl)phenyl)-4,5,6,7-tetrahydrothieno [2,3-c]pyridine-3-carboxamide], the pKi on DDR1 [1] and at DDR2 was over 7.60 throughout. The compound further gave a pIC50 against DDR1 [2] of 7.30 to 7.60.

For the compound `Cn1nc(C(C)(C)C)cc1NC(=O)c1csc2c1CCN(C(=O)c1cnc3ccc(F)cn13)C2` [Example 81, N-(3-(tert-butyl)-1-methyl-1H-pyrazol-5-yl)-6-(6-fluoroimidazo[1,2-a]pyridine-3-carbonyl)-4,5,6,7-tetrahydrothieno[2,3-c]pyridine-3-carboxamide], the pKi at DDR1 [1] and at DDR2 was over 7.60 throughout. Further, the pIC50 on DDR1 [2] is 7.10 to 7.30.
